Source: ChEMBL document CHEMBL1649285, “In vivo efficacy of 1- and 2-gram human simulated prolonged infusions of doripenem against Pseudomonas aeruginosa” (Antimicrob Agents Chemother, 2009)
In brackets after ≈: the same amount, converted by molar mass.

Assays:
[1] = tested on: Pseudomonas aeruginosa; experiment: Antimicrobial activity against Pseudomonas aeruginosa selected at MIC […] to […] ug/ml infected ICR mouse assessed as reduction in bacterial load at 1g, sc administered 2 hrs post infection every 8 hrs; format: functional
[2] = tested on: Homo sapiens; experiment: fCmax in human at 1 g, iv administered as 4 hrs infusion every 8 hrs; format: ADME, organism-based; conditions: in vivo
[3] = tested on: Pseudomonas aeruginosa; experiment: Antimicrobial activity against Pseudomonas aeruginosa isolate 944 by broth microdilution method; format: functional
[4] = tested on: Mus musculus; experiment: fCmax in ICR mouse at 1 g, sc administered 2 hrs post infection every 8 hrs; format: ADME, organism-based; conditions: in vivo
[5] = tested on: Homo sapiens; experiment: fCmax in human at 2 g, iv administered as 4 hrs infusion every 8 hrs; format: ADME, organism-based; conditions: in vivo
[6] = tested on: Pseudomonas aeruginosa; experiment: Antimicrobial activity against Pseudomonas aeruginosa isolate 968 by broth microdilution method; format: functional
[7] = tested on: Pseudomonas aeruginosa; experiment: Antimicrobial activity against Pseudomonas aeruginosa isolate 1006 by broth microdilution method; format: functional
[8] = fT>MIC in Pseudomonas aeruginosa selected at 8 ug/ml MIC infected human at 2 g, iv administered as 4 hrs infusion every 8 hrs; format: functional
[9] = tested on: Pseudomonas aeruginosa; experiment: Antimicrobial activity against Pseudomonas aeruginosa isolate 927 by broth microdilution method; format: functional
[10] = fT>MIC in Pseudomonas aeruginosa selected at 16 ug/ml MIC infected human at 1 g, iv administered as 4 hrs infusion every 8 hrs; format: functional
[11] = tested on: Mus musculus; experiment: fCmax in ICR mouse at 2 g, sc administered 2 hrs post infection every 8 hrs; format: ADME, organism-based; conditions: in vivo
[12] = tested on: Pseudomonas aeruginosa; experiment: Antimicrobial activity against Pseudomonas aeruginosa isolate 988 by broth microdilution method; format: functional
[13] = tested on: Homo sapiens; experiment: fAUC in human at 2 g, iv administered as 4 hrs infusion every 8 hrs; format: ADME, organism-based; conditions: in vivo
[14] = fT>MIC in Pseudomonas aeruginosa selected at 2 ug/ml MIC infected human at 2 g, iv administered as 4 hrs infusion every 8 hrs; format: functional
[15] = fT>MIC in Pseudomonas aeruginosa selected at 8 ug/ml MIC infected ICR mouse at 1 g, sc administered 2 hrs post infection every 8 hrs; format: functional
[16] = tested on: Homo sapiens; experiment: fAUC in human at 1 g, iv administered as 4 hrs infusion every 8 hrs; format: ADME, organism-based; conditions: in vivo
[17] = fT>MIC in Pseudomonas aeruginosa selected at 32 ug/ml MIC infected ICR mouse at 1 g, sc administered 2 hrs post infection every 8 hrs; format: functional
[18] = tested on: Pseudomonas aeruginosa; experiment: Antimicrobial activity against Pseudomonas aeruginosa isolate 1036 by broth microdilution method; format: functional
[19] = tested on: Pseudomonas aeruginosa; experiment: Antimicrobial activity against Pseudomonas aeruginosa isolate 22 by broth microdilution method; format: functional
[20] = tested on: Pseudomonas aeruginosa; experiment: Antimicrobial activity against Pseudomonas aeruginosa isolate 913 by broth microdilution method; format: functional
[21] = fT>MIC in Pseudomonas aeruginosa selected at 32 ug/ml MIC infected human at 1 g, iv administered as 4 hrs infusion every 8 hrs; format: functional
[22] = fT>MIC in Pseudomonas aeruginosa selected at 4 ug/ml MIC infected ICR mouse at 2 g, sc administered 2 hrs post infection every 8 hrs; format: functional
[23] = tested on: Pseudomonas aeruginosa; experiment: Antimicrobial activity against Pseudomonas aeruginosa isolate 1093 by broth microdilution method; format: functional
[24] = fT>MIC in Pseudomonas aeruginosa selected at 16 ug/ml MIC infected ICR mouse at 1 g, sc administered 2 hrs post infection every 8 hrs; format: functional
[25] = fT>MIC in Pseudomonas aeruginosa selected at 2 ug/ml MIC infected ICR mouse at 1 g, sc administered 2 hrs post infection every 8 hrs; format: functional
[26] = tested on: Pseudomonas aeruginosa; experiment: Antimicrobial activity against Pseudomonas aeruginosa isolate 821 by broth microdilution method; format: functional
[27] = tested on: Pseudomonas aeruginosa; experiment: Antimicrobial activity against Pseudomonas aeruginosa isolate 1050 by broth microdilution method; format: functional
[28] = fT>MIC in Pseudomonas aeruginosa selected at 8 ug/ml MIC infected human at 1 g, iv administered as 4 hrs infusion every 8 hrs; format: functional
[29] = fT>MIC in Pseudomonas aeruginosa selected at 8 ug/ml MIC infected ICR mouse at 2 g, sc administered 2 hrs post infection every 8 hrs; format: functional
[30] = tested on: Pseudomonas aeruginosa; experiment: Antimicrobial activity against Pseudomonas aeruginosa isolate 1095 by broth microdilution method; format: functional
[31] = fT>MIC in Pseudomonas aeruginosa selected at 4 ug/ml MIC infected human at 2 g, iv administered as 4 hrs infusion every 8 hrs; format: functional
[32] = tested on: Mus musculus; experiment: fAUC in ICR mouse at 1 g, sc administered 2 hrs post infection every 8 hrs; format: ADME, organism-based; conditions: in vivo
[33] = fT>MIC in Pseudomonas aeruginosa selected at 32 ug/ml MIC infected ICR mouse at 2 g, sc administered 2 hrs post infection every 8 hrs; format: functional
[34] = fT>MIC in Pseudomonas aeruginosa selected at 16 ug/ml MIC infected human at 2 g, iv administered as 4 hrs infusion every 8 hrs; format: functional
[35] = fT>MIC in Pseudomonas aeruginosa selected at 2 ug/ml MIC infected ICR mouse at 2 g, sc administered 2 hrs post infection every 8 hrs; format: functional
[36] = tested on: Pseudomonas aeruginosa; experiment: Antimicrobial activity against Pseudomonas aeruginosa isolate 971 by broth microdilution method; format: functional
[37] = tested on: Mus musculus; experiment: fAUC in ICR mouse at 2 g, sc administered 2 hrs post infection every 8 hrs; format: ADME, organism-based; conditions: in vivo
[38] = fT>MIC in Pseudomonas aeruginosa selected at 4 ug/ml MIC infected human at 1 g, iv administered as 4 hrs infusion every 8 hrs; format: functional
[39] = fT>MIC in Pseudomonas aeruginosa selected at 2 ug/ml MIC infected human at 1 g, iv administered as 4 hrs infusion every 8 hrs; format: functional
[40] = tested on: Pseudomonas aeruginosa; experiment: Antimicrobial activity against Pseudomonas aeruginosa isolate 1080 by broth microdilution method; format: functional
[41] = tested on: Pseudomonas aeruginosa; experiment: Antimicrobial activity against Pseudomonas aeruginosa isolate 878 by broth microdilution method; format: functional
[42] = tested on: Pseudomonas aeruginosa; experiment: Antimicrobial activity against Pseudomonas aeruginosa isolate 896 by broth microdilution method; format: functional
[43] = fT>MIC in Pseudomonas aeruginosa selected at 16 ug/ml MIC infected ICR mouse at 2 g, sc administered 2 hrs post infection every 8 hrs; format: functional
[44] = tested on: Pseudomonas aeruginosa; experiment: Antimicrobial activity against Pseudomonas aeruginosa isolate 856 by broth microdilution method; format: functional
[45] = tested on: Pseudomonas aeruginosa; experiment: Antimicrobial activity against Pseudomonas aeruginosa selected at MIC […] to […] ug/ml infected ICR mouse assessed as reduction in bacterial load at 2g, sc administered 2 hrs post infection every 8 hrs; format: functional
[46] = fT>MIC in Pseudomonas aeruginosa selected at 4 ug/ml MIC infected ICR mouse at 1 g, sc administered 2 hrs post infection every 8 hrs; format: functional
[47] = fT>MIC in Pseudomonas aeruginosa selected at 32 ug/ml MIC infected human at 2 g, iv administered as 4 hrs infusion every 8 hrs; format: functional
[48] = tested on: Pseudomonas aeruginosa; experiment: Antimicrobial activity against Pseudomonas aeruginosa isolate 1060 by broth microdilution method; format: functional

C[C@@H](O)[C@H]1C(=O)N2C(C(=O)O)=C(S[C@@H]3CN[C@H](CNS(N)(=O)=O)C3)[C@H](C)[C@H]12 [DORIPENEM]
log10cfu [1]: >=2
fCmax [2]: 15.6 µg/mL
MIC [3]: 4 µg/mL (≈ 9.51 µM)
fCmax [4]: 15.9 µg/mL
fCmax [5]: 31.2 µg/mL
MIC [6]: 16 µg/mL (≈ 38 µM)
MIC [7]: 8 µg/mL (≈ 19 µM)
fT>MIC [8]: 65%
MIC [9]: 16 µg/mL (≈ 38 µM)
fT>MIC [10]: 0%
fCmax [11]: 31.9 µg/mL
MIC [12]: 8 µg/mL (≈ 19 µM)
fAUC [13]: 129300 ng·h/mL
fT>MIC [14]: 95%
fT>MIC [15]: 52.5%
fAUC [16]: 64700 ng·h/mL
fT>MIC [17]: 0%
MIC [18]: 2 µg/mL (≈ 4.76 µM)
MIC [19]: 8 µg/mL (≈ 19 µM)
MIC [20]: 16 µg/mL (≈ 38 µM)
fT>MIC [21]: 0%
fT>MIC [22]: 82.5%
MIC [23]: 32 µg/mL (≈ 76.1 µM)
fT>MIC [24]: 0%
fT>MIC [25]: 82.5%
MIC [26]: 32 µg/mL (≈ 76.1 µM)
MIC [27]: 4 µg/mL (≈ 9.51 µM)
fT>MIC [28]: 50%
fT>MIC [29]: 70%
MIC [30]: 4 µg/mL (≈ 9.51 µM)
fT>MIC [31]: 80%
fAUC [32]: 68600 ng·h/mL
fT>MIC [33]: 0%
fT>MIC [34]: 50%
fT>MIC [35]: 95%
MIC [36]: 16 µg/mL (≈ 38 µM)
fAUC [37]: 137100 ng·h/mL
fT>MIC [38]: 65%
fT>MIC [39]: 80%
MIC [40]: 32 µg/mL (≈ 76.1 µM)
MIC [41]: 8 µg/mL (≈ 19 µM)
MIC [42]: 8 µg/mL (≈ 19 µM)
fT>MIC [43]: 52.5%
MIC [44]: 16 µg/mL (≈ 38 µM)
log10cfu [45]: >=2
fT>MIC [46]: 70%
fT>MIC [47]: 0%
MIC [48]: 4 µg/mL (≈ 9.51 µM)
